Data: patent publication EP4737449A1 (Changchun Genescience Pharmaceutical Co., Ltd., priority 2023, dated 2025)

Tests used:
p53-Y220C mutant protein = target: T1, p53-Y220C mutant protein (Homo sapiens, UniProt P04637, Y220C); assay: In vitro DNA binding activity assay (TR-FRET); type: biochemical; conditions: concentration required to increase the binding activity of protein to DNA by 50%
T1 construct: The recombinant Y220C p53 DBD protein with his-tag
Outline: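 SC150, the compound concentration increasing p53-Y220C DNA binding by 50% relative to vehicle, came from background-corrected 665/615 nm TR-FRET ratios. His-tagged DBD and compound were preincubated 60 min at RT before biotin-DNA plus Eu-anti-His/streptavidin-d2 detection overnight in the dark.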

[1] = target: CYP 3A4 enzyme in human liver microsomes (Homo sapiens, UniProt P08684); assay: CYP3A4 inhibition experiment in human liver microsomes
CYP 3A4 enzyme in human liver microsomes, sequence (P08684 whole entry): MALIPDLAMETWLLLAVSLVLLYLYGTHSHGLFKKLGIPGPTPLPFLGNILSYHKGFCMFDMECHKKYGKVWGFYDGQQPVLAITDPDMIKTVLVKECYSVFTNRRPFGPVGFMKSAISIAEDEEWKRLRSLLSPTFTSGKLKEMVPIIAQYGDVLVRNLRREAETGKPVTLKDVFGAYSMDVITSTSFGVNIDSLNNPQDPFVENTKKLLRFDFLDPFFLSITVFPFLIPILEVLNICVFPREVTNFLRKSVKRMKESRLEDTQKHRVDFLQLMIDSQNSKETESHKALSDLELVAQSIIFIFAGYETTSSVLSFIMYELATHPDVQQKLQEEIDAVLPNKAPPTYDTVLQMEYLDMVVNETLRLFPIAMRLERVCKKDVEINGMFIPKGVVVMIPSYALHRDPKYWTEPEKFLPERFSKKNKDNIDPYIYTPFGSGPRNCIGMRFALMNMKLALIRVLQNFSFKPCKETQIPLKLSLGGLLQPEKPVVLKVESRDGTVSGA
Description: The inhibitory effects of the test compounds on CYP 3A4T (with testosterone as substrate) and 3A4M (with midazolam as substrate) in human liver microsomes were evaluated in vitro to assess the medication safety of the compounds.
This study used the human liver microsome system and the cytochrome P450 enzyme probe substrate recommended by FDA guidelines for in vitro drug interaction studies to investigate the inhibition of the CYP 3A4 enzyme in human liver microsomes by the test compounds.
Test group (TG): Human liver microsomes were incubated with different concentrations of test compounds, NADPH (final concentration 2.00 mM) and probe substrates of different sub-enzymes (Table 4) for 5 min.
Positive control group (PC): Human liver microsomes were incubated with inhibitors (Table 4), NADPH (final concentration 2.00 mM) and probe substrates of different sub-enzymes (Table 4) for 5 min. Table 4 Probe substrates of sub-enzymes, inhibitors and incubation systems
The system was pre-incubated at 37°C for 5 min, and then 15 µL of 8 mM NADPH solution preheated at 37°C for 5-10 min to start the reaction. After incubation of the 96-well plate at 37°C for 5 min, 180 µL of acetonitrile:methanol (ACN:MeOH=1:1) solution containing internal standard (IS) was added to terminate the reaction. […] 80 µL of the supernatant was taken, added to 120 µL of ultrapure water, shaken evenly, and then detected by LC-MS/MS.
199 µL of 0.2 mg/mL HLM and 1 µL of 1 mM positive control inhibitor (ketoconazole) working solutions were taken and mixed evenly. 30 µL of the drug-containing liver microsome solution was taken and added to a 96-well plate, then 10 µL of substrate working solution (20 µM midazolam) was added, in duplicate. The system was pre-incubated at 37°C for 5 min, and then 15 µL of 8 mM NADPH solution preheated at 37°C for 5-10 min to start the reaction. After incubation of the 96-well plate at 37°C for 5 min, 180 µL of ACN:MeOH(1:1) solution containing IS was added to terminate the reaction. […] 80 µL of the supernatant was taken, added to 120 µL of ultrapure water, shaken evenly, and then detected by LC-MS/MS.
4.2.5.1 The relative activity of CYP450 sub-enzymes at different concentrations was calculated by dividing the peak area ratio (analyte peak area/internal standard peak area) of metabolites in the presence of the test sample or positive control by the peak area ratio of metabolites in the solvent control sample in the absence of the test article or positive control, according to the following formula: [formula] [formula]
4.2.5.2 Half maximal inhibitory concentration (IC50) was obtained by fitting according to the following model formula using Prism software: Y = Bottom + (Top−Bottom)/(1+10^(∧)((LogIC50−X)×HillSlope)) [formula]
X is the test sample concentration converted to logarithm (Log µM), Y is the relative activity (% of NC), Bottom and Top represent the percentage of enzyme activity at the bottom platform and top platform of the curve, respectively, and HillSlope represents the slope; to optimize the fitting effect, the use of other (nonlinear) dose-response models for fitting is not considered as a deviation from the protocol.

NUGC-3 cells = assay: NUGC-3 cell proliferation assay (CTG, 7 days); type: cell-based, human; conditions: Homo sapiens, NUGC-3, 168 h, NUGC-3 cell proliferation, 7 days, CTG; read-out: IC50
Description: The cells were cultured in strict accordance with ATCC requirements.
Cell culture medium: 1640 culture medium, 10% serum, 1% penicillin + streptomycin.
Culture conditions: 37°C, 95% air, 5% carbon dioxide.
Compounds (20 mM) were subjected to gradient dilution in DMSO: 10 gradients, 3-fold dilution, duplicate wells.
Positive and negative controls (100% dimethyl sulfoxide) were prepared.
The compounds that were gradient diluted with DMSO and positive and negative controls (1st and 2nd step), each 75 nL, were transferred to 384-well cell culture plates by Echo550.
The cells were washed twice with PBS, digested with trypsin, and centrifuged for cell counting.
The experiment can only be carried out when the cell viability is above 90%.
The cells were plated into 384-well cell culture plates, with 200 (NUGC-3) cells and 30 µL of culture medium per well.
The 384-well microplate was placed in a cell culture incubator for 7 days.
30 µL of CTG detection reagent was added to the 384-well microplate.
The 384-well microplate was incubated for 30 min at 37°C, 5% carbon dioxide in the dark.
The reading was performed by a multi-functional microplate reader Envision.
% Inhibition is calculated as follows: % Inhibition = 100−(Signalcmpd−SignalAve_BL)/(SignalAve_VC−SignalAve_BL)*100 [formula] • Signalcmpd: Average signal of the compound in the cell plate • Signalave_vc: Average signal of the negative control in the cell plate • Signalave_BL: Average signal of the blank wells in the cell plate
IC50 was calculated by fitting % inhibition and compound concentration logarithmically to a nonlinear regression (dose response - variable slope) using Graphpad 8.0. Table 2 IC50 of selected compounds in NUGC-3 cell proliferation assay

SC150 (p53-Y220C mutant protein) [nM]	IC50 ([1]; CYP 3A4M IC50, human liver microsomes, midazolam as substrate) [nM]	IC50 ([1]; CYP 3A4T IC50, human liver microsomes, testosterone as substrate) [nM]	Structure (SMILES)	IC50 (NUGC-3 cells) [nM]
6	> 30000	> 30000	CCn1cc(C(=O)NCC#Cc2nn3c(N[C@@H]4CCN(C)C[C@@H]4F)cccc3c2CC(F)(F)F)cn1 [Compound 004, 1-ethyl-N-[3-(7-{[(3S,4R)-3-fluoro-1-methylpiperidin-4-yl]amino}-3-(2,2,2-trifluoroethyl)pyrazolo[1,5-a]pyridin-2-yl)prop-2-yn-1-yl]-1H-pyrazole-4-carboxamide]	
28			CN1CC[C@@H](Nc2cccc3c(CC(F)(F)F)c(C#CCNC(=O)c4ccn(C5(C)CC5)c4)nn23)[C@@H](F)C1 [Compound 313, N-[3-(7-{[(3S,4R)-3-fluoro-1-methylpiperidin-4-yl]amino}-3-(2,2,2-trifluoroethyl)pyrazolo[1,5-a]pyridin-2-yl)prop-2-yn-1-yl]-1-(1-methylcyclopropyl)-1H-pyrrole-3-carboxamide]	1370
35			CN1CC[C@@H](Nc2cccc3c(CC(F)(F)F)c(C#CCNC(=O)c4ccc(N5CCC5)nc4)nn23)[C@@H](F)C1 [Compound 314, 6-(azetidin-1-yl)-N-[3-(7-{[(3S,4R)-3-fluoro-1-methylpiperidin-4-yl]amino}-3-(2,2,2-trifluoroethyl)pyrazolo[1,5-a]pyridin-2-yl)prop-2-yn-1-yl]-3-nicotinamide]	1200
52			CN1CC[C@@H](Nc2cccc3c(CC(F)(F)F)c(C#CCNC(=O)c4ccc(N5CCCC5)nc4)nn23)[C@@H](F)C1 [Compound 315, N-[3-(7-{[(3S,4R)-3-fluoro-1-methylpiperidin-4-yl]amino}-3-(2,2,2-trifluoroethyl)pyrazolo[1,5-a]pyridin-2-yl)prop-2-yn-1-yl]-6-(pyrrolidin-1-yl)nicotinamide]	1240
97			CN1CC[C@@H](Nc2cccc3c(CC(F)(F)F)c(C#CCNC(=O)c4ccc(N5CCCCC5)nc4)nn23)[C@@H](F)C1 [Compound 316, N-[3-(7-{[(3S,4R)-3-fluoro-1-methylpiperidin-4-yl]amino}-3-(2,2,2-trifluoroethyl)pyrazolo[1,5-a]pyridin-2-yl)prop-2-yn-1-yl]-6-(piperidin-1-yl)nicotinamide]	2160
44			Cc1cc(C(=O)NCC#Cc2nn3c(N[C@@H]4CCN(C)C[C@@H]4F)cccc3c2CC(F)(F)F)[nH]c1C [Compound 317, N-[3-(7-{[(3S,4R)-3-fluoro-1-methylpiperidin-4-yl]amino}-3-(2,2,2-trifluoroethyl)pyrazolo[1,5-a]pyridin-2-yl)prop-2-yn-1-yl]-4,5-dimethyl-1H-pyrrole-2-carboxamide]	1290
59			Cc1nc(C(=O)NCC#Cc2nn3c(N[C@@H]4CCN(C)C[C@@H]4F)cccc3c2CC(F)(F)F)cn1C [Compound 318, N-[3-(7-{[(3S,4R)-3-fluoro-1-methylpiperidin-4-yl]amino}-3-(2,2,2-trifluoroethyl)pyrazolo[1,5-a]pyridin-2-yl)prop-2-yn-1-yl]-1,2-dimethyl-1H-imidazole-4-carboxamide]	1700
41			CN1CC[C@@H](Nc2cccc3c(CC(F)(F)F)c(C#CCNC(=O)c4cn(C)cn4)nn23)[C@@H](F)C1 [Compound 319, N-[3-(7-{[(3S,4R)-3-fluoro-1-methylpiperidin-4-yl]amino}-3-(2,2,2-trifluoroethyl)pyrazolo[1,5-a]pyridin-2-yl)prop-2-yn-1-yl]-1-methyl-1H-imidazole-4-carboxamide]	1370
28			CC(C)n1cnc(C(=O)NCC#Cc2nn3c(N[C@@H]4CCN(C)C[C@@H]4F)cccc3c2CC(F)(F)F)c1 [Compound 320, N-[3-(7-{[(3S,4R)-3-fluoro-1-methylpiperidin-4-yl]amino}-3-(2,2,2-trifluoroethyl)pyrazolo[1,5-a]pyridin-2-yl)prop-2-yn-1-yl]-1-isopropyl-1H-imidazole-4-carboxamide]	1560
28			CN1CC[C@@H](Nc2cccc3c(CC(F)(F)F)c(C#CCNC(=O)c4cc(Cl)n(C)c4)nn23)[C@@H](F)C1 [Compound 326, 5-chloro-N-(3-(7-{[(3S,4R)-3-fluoro-1-methylpiperidin-4-yl]amino}-3-(2,2,2-trifluoroethyl)pyrazolo[1,5-a]pyridin-2-yl)prop-2-yn-1-yl)-1-methyl-1H-pyrrole-3-carboxamide]	1180
30			CN1CC[C@@H](Nc2cccc3c(CC(F)(F)F)c(C#CCNC(=O)c4ccc(N(C)C)nc4)nn23)[C@@H](F)C1 [Compound 328, 6-dimethylamino-N-[3-(7-{[(3S,4R)-3-fluoro-1-methylpiperidin-4-yl]amino}-3-(2,2,2-trifluoroethyl)pyrazolo[1,5-a]pyridin-2-yl)prop-2-yn-1-yl]pyridine-3-carboxamide]	1210
36			CCc1ccc(C(=O)NCC#Cc2nn3c(N[C@@H]4CCN(C)C[C@@H]4F)cccc3c2CC(F)(F)F)cn1 [Compound 331, 6-ethyl-N-[3-(7-{[(3S,4R)-3-fluoro-1-methylpiperidin-4-yl]amino}-3-(2,2,2-trifluoroethyl)pyrazolo[1,5-a]pyridin-2-yl)prop-2-yn-1-yl]pyridine-3-carboxamide]	1720
29			Cc1ccc(C(=O)NCC#Cc2nn3c(N[C@@H]4CCN(C)C[C@@H]4F)cccc3c2CC(F)(F)F)cn1 [Compound 332, N-[3-(7-{[(3S,4R)-3-fluoro-1-methylpiperidin-4-yl]amino}-3-(2,2,2-trifluoroethyl)pyrazolo[1,5-a]pyridin-2-yl)prop-2-yn-1-yl]-6-methylnicotinamide]	1710
9			CC(C)(C)n1ncc(C(=O)NCC#Cc2nn3c(N[C@@H]4CCNC[C@@H]4F)cccc3c2CC(F)(F)F)c1N [Compound 353-4, 5-amino-1-tert-butyl-N-[3-(7-{[(3S,4R)-3-fluoropiperidin-4-yl]amino}-3-(2,2,2-trifluoroethyl)pyrazolo[1,5-a]pyridin-2-yl)prop-2-yn-1-yl]-1H-pyrazole-4-carboxamide]	181
5			CCN1CC[C@@H](Nc2cccc3c(CC(F)(F)F)c(C#CCNC(=O)c4cnn(C(C)C)c4N)nn23)[C@@H](F)C1 [Compound 365, 5-amino-N-(3-(7-{[(3S,4R)-1-ethyl-3-fluoropiperidin-4-yl]amino}-3-(2,2,2-trifluoroethyl)pyrazolo[1,5-a]pyridin-2-yl)prop-2-yn-1-yl)-1-isopropyl-1H-pyrazole-4-carboxamide]	127
